Experiments:
[1] = tested on: normal human lung fibroblast Wi-38 cell line; experiment: MTT cytotoxicity on normal cells; type: cell-based; details: Wi-38, 72 h, MTT, mean ± SEM; for EC50: Homo sapiens, 50% cell viability; for Wi-38 EC100: safe dose, 100% cell viability
Description: Cytotoxicity of the tested compounds was evaluated using normal human lung fibroblast Wi-38 cell line compared to currently used anticancer drug (doxorubicin) using MTT method was used for assaying cell viability[26] (Supplementary Page S55).
Cytotoxicity test is one of the biological evaluations and screening tests that use human normal and cancer cells in-vitro to observe the effect of the studied compounds on their growth using MTT-based cytotoxicity. Microculture MTT method[26] was used to determine cytotoxic activity of the newly synthesised compounds against normal human lung fibroblast (Wi-38) using doxorubicin (Dox) as standard anticancer drug. The highest IC50 and EC100 values illustrate that the compounds were safe on the proliferation of normal human cells. […]. page 47:
(§1) Cytotoxicity of the tested compounds was evaluated using normal human lung fibroblast Wi-38 cell line compared to currently used anticancer drug (doxorubicin).
Firstly, Wi-38 cell line was subcultured in DMEM medium-contained 10% fetal bovine serum (FBS), then, seeded as 5x10^3 cells per well in 96-well cell culture plate and incubated at 37 °C in 5% CO 2 incubator. Serial concentrations of these compounds and doxorubicin (Dox) were incubat ed with Wi-38 cells for 72 h after 24 h for cell attachment. MTT method was used for assaying cell viability 25. Twenty microliters of 5 mg/ml MTT (Sigma, USA) was added to each well and the plate was incubated at 37 °C for 3 h. Then MTT solution was removed, 100 µl DMSO was used and the absorbance of each well was measured with a microplate reader ( BMG LabTech, Germany) at 570 nm. The effective concentration (IC 50) and safe dose (EC100) values of the tested compounds that cause 50% and 100% cell viability were estimated by the Graphpad Instat software. […]

[2] = tested on: liver cancer cell line (HepG-2); experiment: MTT anticancer activity, HepG-2; type: cell-based, human; details: Homo sapiens, HepG2; HepG-2, 72 h, MTT; mean ± SEM
Description: (§2) Anticancer effect of the above-mentioned compounds was evaluated using four human cancer cell lines. Colon cancer cells (Caco-2), myeloid leukaemia cell line (NFS-60), liver cancer cell line (HepG-2) and prostate cancer cell line (PC-3) using MTT method was used for assaying cell viability[26] (Supplementary Page S55).
(§3) All final compounds were evaluated against four human cancer cell lines namely; liver cancer (HepG2) (ATCC® HB-8065™), colon cancer (Caco-2) (ATCC® HTB-37™), leukaemia cancer (NFS-60) (ATCC® CRL-1838™), and prostate cancer (PC-3) (ATCC® CRL-1435™) using doxorubicin (Dox) as the reference drug being widely used in tumour management utilising microculture MTT assay, declared by Mosmann[26] (Table 1 in Supplementary Material, Figures 5–8). […]
(§4) MTT method was used for assaying cell viability 25. Twenty microliters of 5 mg/ml MTT (Sigma, USA) was added to each well and the plate was incubated at 37 °C for 3 h. Then MTT solution was removed, 100 µl DMSO was used and the absorbance of each well was measured with a microplate reader ( BMG LabTech, Germany) at 570 nm. The effective concentration (IC 50) and safe dose (EC100) values of the tested compounds that cause 50% and 100% cell viability were estimated by the Graphpad Instat software.
(§5) Determination of the anticancer activity
(§6) Anticancer effect of the above-mentioned compounds was evaluated using four human cancer cell lines. Colon cancer cells (Caco-2) were maintained in DMEM (Lonza, USA) containing 10% FBS while myeloid leukemia cell line (NFS-60), liver cancer cell line (HepG-2) and prostate cancer cell line (PC-3) were cultured in RPMI-1640 (Lonza, USA) supplemented with 10% FBS. All cancer cells (5x10^3 cells/well) were seeded in sterile 96-well plates. After 24h, serial concentrations of the tested compounds and Dox were incubated with four cancer cell lines for 72 h at 37 °C in 5% CO2 incubator. MTT method was done as described above. The Graphpad Instat software was used for calculating the half maximal inhibitory concentration (IC50) values. Furthermore, phase contrast inverted microscope with a digital camera (Olympus, Japan) was used for investigating […]
(§7) safest anticancer compounds. […]

[3] = tested on: Colon cancer cells (Caco-2); experiment: MTT anticancer activity, Caco-2; type: cell-based, human; details: for IC50: Caco-2, 72 h, MTT, mean ± SEM; for Caco-2 SI: selectivity index, Wi-38 versus Caco-2
Description: as §2
All final compounds were evaluated against four human cancer cell lines namely; liver cancer (HepG2) (ATCC® HB-8065™), colon cancer (Caco-2) (ATCC® HTB-37™), leukaemia cancer (NFS-60) (ATCC® CRL-1838™), and prostate cancer (PC-3) (ATCC® CRL-1435™) using doxorubicin (Dox) as the reference drug being widely used in tumour management utilising microculture MTT assay, declared by Mosmann[26] (Table 1 in Supplementary Material, Figures 5–8).
as §1
Firstly, Wi-38 cell line was subcultured in DMEM medium-contained 10% fetal bovine serum (FBS), then, seeded as 5x10^3 cells per well in 96-well cell culture plate and incubated at 37 °C in 5% CO 2 incubator. Serial concentrations of these compounds and doxorubicin (Dox) were incubat ed with Wi-38 cells for 72 h after 24 h for cell attachment. MTT method was used for assaying cell viability 25. Twenty microliters of 5 mg/ml MTT (Sigma, USA) was added to each well and the plate was incubated at 37 °C for 3 h. Then MTT solution was removed, 100 µl DMSO was used and the absorbance of each well was measured with a microplate reader ( BMG LabTech, Germany) at 570 nm. The effective concentration (IC 50) and safe dose (EC100) values of the tested compounds that cause 50% and 100% cell viability were estimated by the Graphpad Instat software.
as §5, §6, §7

[4] = tested on: myeloid leukaemia cell line (NFS-60); experiment: MTT anticancer activity, NFS-60; type: cell-based; details: NFS-60, 72 h, MTT; mean ± SEM
Description: as §2, §3, §4, §5, §6, §7

[5] = tested on: prostate cancer cell line (PC-3); experiment: MTT anticancer activity, PC-3; type: cell-based, human; details: PC-3, 72 h, mean ± SEM
Description: as §2, §3, §4, §5, §6, §7

Row | Structure (SMILES) | EC50 [1] | Wi-38 EC100 [1] | IC50 [2] | IC50 ([3]; Homo sapiens) | Caco-2 SI [3] | IC50 [4] | melting point | IC50 ([5]; Homo sapiens, 72 h) | IC50 [3] | IC50 [5]
1 | N#Cc1c(-c2cc3ccccc3nc2N2CCOCC2)cc(-c2cccc(O)c2)[nH]c1=O [5a, 6-(3-Hydroxyphenyl)-4-(morpholin-4-yl-quinolin-3-yl)-2-oxo-1,2-dihydropyridine-3-carbonitrile] | 60.3 ± 40 nM | 0.0192 ± 0.003 µM | 34.4 ± 6 nM | 38.8 ± 8 nM | 1.554 | 31.62 ± 0.1 nM | > 300 °C | – | – | –
2 | N#Cc1c(-c2cc3ccccc3nc2N2CCCCC2)cc(-c2cccc(O)c2)[nH]c1=O [5d, 6-(3-Hydroxyphenyl)-2-oxo-4-(2-(piperidin-1-yl)quinoline-3-yl)-1,2-dihydropyridine-3-carbonitrile] | 29.9 ± 0.1 nM | 0.0239 ± 0.0003 µM | 89.7 ± 13 nM | 38.6 ± 1 nM | 0.775 | 71.3 ± 3 nM | 244 to 246 °C | 53.4 ± 4 nM | – | –
3 | N#Cc1c(-c2cc3cc(Cl)ccc3nc2N2CCCCC2)cc(-c2cccc(O)c2)[nH]c1=O [5e, 4-(6-Chloro-2-(piperidin-1-yl)quinoline-3-yl)-6-(3-hydroxyphenyl)-2-oxo-1,2-dihydropyridine-3-carbonitrile] | 27.6 ± 1 nM | 0.0234 ± 0.001 µM | 36.1 ± 1 nM | 51.7 ± 5 nM | 0.534 | 62.7 ± 27 nM | > 300 °C | 40.9 ± 1 nM | – | –
4 | COc1ccc2nc(N3CCCCC3)c(-c3cc(-c4cccc(O)c4)[nH]c(=O)c3C#N)cc2c1 [5f, 6-(3-Hydroxyphenyl)-4-(6-methoxy-2-(piperidin-1-yl)quinolin-3-yl)-2-oxo-1,2-dihydropyridine-3-carbonitrile] | 29.8 ± 2 nM | 0.0258 ± 0.008 µM | 37.8 ± 10 nM | 50.8 ± 4 nM | 0.587 | 42.83 ± 0.3 nM | 265 to 267 °C | 45.1 ± 0.1 nM | – | –
5 | N#Cc1c(-c2cc3ccccc3nc2N2CCOCC2)cc(-c2cccc(O)c2)nc1S [6a, 6-(3-Hydroxyphenyl)-4-(2-morpholin-4-yl-quinolin-3-yl)-2-mercaptopyridine-3-carbonitrile] | 181 ± 5 nM | 0.0785 ± 0.003 µM | 74 ± 2 nM | 104 ± 4 nM | 1.740 | 135 ± 2 nM | 240 to 242 °C | 127 ± 2 nM | – | –
6 | N#Cc1c(-c2cc3cc(Cl)ccc3nc2N2CCOCC2)cc(-c2cccc(O)c2)nc1S [6b, 4-(6-Chloro-2-morpholin-4-yl-quinolin-3-yl)-6-(3-hydroxyphenyl)-2-mercaptopyridine-3-carbonitrile] | 138 ± 2 nM | 0.0493 ± 0.001 µM | 46.6 ± 1 nM | 55.2 ± 3 nM | 2.500 | 204 ± 6 nM | 260 to 261 °C | 119 ± 14 nM | – | –
7 | COc1ccc2nc(N3CCOCC3)c(-c3cc(-c4cccc(O)c4)nc(S)c3C#N)cc2c1 [6c, 6-(3-Hydroxyphenyl)-4-(6-methoxy-2-morpholin-4-yl-quinolin-3-yl)-2-mercaptopyridine-3-carbonitrile] | 376 ± 1 nM | 0.177 ± 0.011 µM | 84.8 ± 2 nM | 99.9 ± 3 nM | 3.764 | 145 ± 15 nM | > 300 °C | 100.8 ± 0.1 nM | – | –
8 | N#Cc1c(-c2cc3ccccc3nc2N2CCCCC2)cc(-c2cccc(O)c2)nc1S [6d, 6-(3-Hydroxyphenyl)-4-(2-(piperidin-1-yl)quinolin-3-yl)-2-mercaptopyridine-3-carbonitrile] | 759 ± 25 nM | 0.212 ± 0.009 µM | 87.6 ± 2 nM | 70.8 ± 3 nM | 10.720 | 217 ± 22 nM | > 300 °C | 135 ± 11 nM | – | –
9 | CC(=O)Oc1cccc(-c2cc(-c3cc4ccccc4nc3N3CCOCC3)c(C#N)c(=O)[nH]2)c1 [7a, 3-(5-Cyano-4-(2-morpholin-4-yl-quinolin-3-yl)-6-oxo-1,6-dihydropyridin-2-yl)phenyl acetate] | 174 ± 5 nM | 0.102 ± 0.01 µM | 49.5 ± 0.1 nM | 79.9 ± 3 nM | 2.178 | 145 ± 2 nM | > 300 °C | 140 ± 20 nM | – | –
10 | CC(=O)Oc1cccc(-c2cc(-c3cc4cc(Cl)ccc4nc3N3CCOCC3)c(C#N)c(=O)[nH]2)c1 [7b, 3-(4-(6-Chloro-2-morpholin-4-yl-quinolin-3-yl)-5-cyano-6-oxo-1,6-dihydropyridin-2-yl)phenyl acetate] | 140 ± 9 nM | 0.110 ± 0.002 µM | 101.6 ± 1 nM | 119 ± 16 nM | 1.176 | 107 ± 1 nM | 189 to 190 °C | 135 ± 2 nM | – | –
11 | N#Cc1c(-c2cc3cc(Cl)ccc3nc2N2CCOCC2)cc(-c2cccc(O)c2)nc1OCC(=O)Nc1ccccc1 [11d, 2-((4-(6-Chloro-2-morpholin-4-yl-quinolin-3-yl)-3-cyano-6-(3-hydroxyphenyl)pyridin-2-yl)oxy)-N-phenylacetamide] | 107 ± 1 nM | 0.0455 ± 0.002 µM | 45.8 nM | < 100 nM | 2.054 | – | 277 to 280 °C | < 100 nM | 52.1 ± 2 nM | 59.4 ± 1 nM
12 | N#Cc1c(-c2cc3cc(Cl)ccc3nc2N2CCOCC2)cc(-c2cccc(O)c2)nc1OCC(=O)Nc1ccc(Cl)cc1 [11e, 2-((4-(6-Chloro-2-morpholin-4-yl-quinolin-3-yl)-3-cyano-6-(3-hydroxyphenyl)pyridin-2-yl)oxy)-N-(4-chlorophenyl)acetamide] | 85 ± 3 nM | 0.0178 ± 0.0001 µM | 41.6 nM | – | 2.733 | – | > 300 °C | – | – | –
13 | COc1ccc(NC(=O)COc2nc(-c3cccc(O)c3)cc(-c3cc4cc(Cl)ccc4nc3N3CCOCC3)c2C#N)cc1 [11f, 2-((4-(6-Chloro-2-morpholin-4-yl-quinolin-3-yl)-3-cyano-6-(3-hydroxyphenyl)pyridin-2-yl)oxy)-N-(4-methoxyphenyl)acetamide] | 181 ± 13 nM | 0.0347 ± 0.003 µM | 36.3 nM | – | 5.262 | – | 228 to 230 °C | – | – | –
